In this assay the target is T1, New Delhi metallo-β-lactamase (NDM-1) (Escherichia coli, UniProt E5KIY2).
T1 construct: gene blaNDM-1; recombinant NDM-1 purified from E. coli BL21(DE3)-pET-32a(+)-blaNDM-1
Description: nitrocefin hydrolysis assay with purified NDM-1, OD492. Type of assay: biochemical.

T1 sequence (E5KIY2 29-270 limits assumed): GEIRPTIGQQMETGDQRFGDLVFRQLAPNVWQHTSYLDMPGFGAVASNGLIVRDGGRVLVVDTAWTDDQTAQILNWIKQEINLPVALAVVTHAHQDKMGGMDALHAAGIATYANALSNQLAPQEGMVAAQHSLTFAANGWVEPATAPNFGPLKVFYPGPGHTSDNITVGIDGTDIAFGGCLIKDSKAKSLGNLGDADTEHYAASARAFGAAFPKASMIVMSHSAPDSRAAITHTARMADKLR

In general, IC50 refers to the midpoint of a concentration-inhibition curve. Low values mean inhibition by little substance, high ones a need for much substance. Turning to `CC(C)NCC(O)COc1ccc(CCOCC2CC2)cc1` (stereo not shown) [BET, betaxolol], it took 19.3 ± 0.9 µM to reach half-maximal inhibition (IC50).

Source of the values: publication PMC10487625, “Betaxolol as a Potent Inhibitor of NDM-1-Positive E. coli That Synergistically Enhances the Anti-Inflammatory Effect in Combination with Meropenem” (International Journal of Molecular Sciences, 2023).
